2 molecules from publication PMC6283615, “Anilinoquinoline based inhibitors of trypanosomatid proliferation” (PLoS Neglected Tropical Diseases, 2018) can be followed below.

Data set [1] has as its system T. b. brucei (strain 427). The data set can be described thus: T. b. brucei proliferation assay (PrestoBlue, 48 h). The format is cell-based, Trypanosoma brucei brucei. Conditions: Trypanosoma brucei. The gist of the method:
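T. b. brucei strain 427, 2.5×10^3 per well in HMI-9, exposed to compounds from 50 μM in 1:2 dilutions, in triplicate. Incubated 48 h at 37°C, 5% CO2. PrestoBlue added for 4 h more, fluorescence read at ex 530/em 590 nm.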

Another data set can be described thus: Aqueous solubility. The format is physicochemical.
The nature of data set [2]: Human plasma protein binding. Format: in vitro ADME. Conditions: read-out: Human PPB (converted).
Data set [3] in a line: Rat hepatocyte intrinsic clearance. Format: in vitro ADME. Conditions: hepatocytes.
Another data set in a line: LogD7.4. Format: physicochemical. The conditions noted are these: pH 7.4.
Data set [4] can be described thus: Plasma and brain pharmacokinetics after single i.p. dose. The format is in vivo. Conditions: 10 mg/kg i.p., female BALB/c mice; for Kp: female, BALB/c, brain/plasma, 10 mg/kg. The procedure:
PK parameters were measured for both brain and plasma following a single intraperitoneal (i.p.) dose of 10 mg/kg (see Supplementary information, S5 and S6 Tables).
Table S5. Pharmacokinetic parameters of NEU-1060 (compound 14) in plasma and brain following a single intraperitoneal administration in female BALB/c mice (Dose:
Compound Dose Route Matrix Tmax Cmax AUClast AUCinf […]
*The density of brain homogenate was considered as 1 which is equivalent to plasma density (1); Brain conc. and exposure expressed as ng/g and hr.ng/g, respectively.
NC – not calculated due to improper elimination phase
Table S6. Brain to plasma exposure ratio of NEU-1060 (compound 14) after a single intraperitoneal administration in female BALB/c mice (Dose: 10 mg/kg)
Compound Dose Route Matrix Cmax Cmax AUClast Brain to plasma
(mg/kg) (ng/mL) ratio (hr*ng/mL) exposure ratio

A further data set deals with NIH/3T3 cells. Put plainly: Drug toxicity to 3T3 cells (Alamar Blue, 96 h). Format: cell-based.
The subject of the next data set is HepG2 cells. Put plainly: Drug toxicity to HepG2 cells (MTT, 48 h). Format: cell-based, human. The conditions noted are these: tested concentration ranges based on compound solubility. The gist of the method:
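HepG2 cells plated overnight, then exposed 48 h to twelve 1.6-fold dilutions (57–10,000 ng/mL) in duplicate at 37° C, 5% CO2. MTT added for 1 h at room temperature; formazan dissolved in acidified isopropanol, absorbance read.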

Values after ≈ are worked out from the molar mass of the structure shown. Like-named read-outs stand apart in the source and are kept apart here.

As for `CN1CCN(c2ncc(-c3ccc4c(Nc5ccc(OCc6cccc(F)c6)c(Cl)c5)ccnc4c3)cn2)CC1` [Compound 14], in data set [1], the half-maximal effective concentration (EC50) (usually the midpoint of the concentration-response curve) is 0.006 µM. Moreover, the solubility – broadly, the dissolved amount per volume that the medium holds – in the data set “Aqueous solubility” is < 1 µM. Moreover, the fraction unbound in data set [2] is < 0.01. For the same molecule, in data set [3], the intrinsic clearance (hepatocyte CLint) – broadly, the rate of metabolic loss divided by the concentration – came to 24 µL/min/1e6 cells. The pH-dependent lipophilicity (logD) (usually the decadic logarithm of the distribution of all forms, ionised or not, between an organic phase and buffer at a given pH) in the data set “LogD7.4” is 3.4. Further, in data set [4] (AUClast based, listed as NEU-1060, 10 mg/kg), the “Brain to plasma exposure ratio” value was 7.43. Further, the AUClast in data set [4] (brain) is 3474.83 ng·h/g. The Kp in data set [4] (mouse, ip, AUClast based, read-out: Brain to plasma exposure ratio) came to 7.4. The Kp in data set [4] (mouse, ip, brain to plasma, read-out: Cmax ratio) amounted to 2.85. For the same molecule, in data set [4] (mouse, ip, brain), the highest concentration (Cmax) (in general, the maximum level reached in the sampled fluid or tissue) was 211 ng/g and the time of peak concentration (Tmax) (as a rule, the time from dosing to the highest level) was determined as 4 h. Moreover, in data set [4] (mouse, ip, plasma), the AUC(0-t) (commonly exposure summed from dosing to a finite time, without extrapolation to infinity) came to 468 ng·h/mL; the Cmax is 74 ng/mL; the time to peak (Tmax) turned out to be 0.25 h.
On to `CN1CCN(c2ncc(-c3ccc4c(Nc5cnccn5)ccnc4c3)cn2)CC1` [Compound 22], for which the “3T3 TC50” value in the data set with NIH/3T3 cells stood at 34 µM. In addition, the “HepG2 TC50” value in the data set with HepG2 cells is > 38 µM. This molecule also yielded a solubility in “Aqueous solubility” of 44 µM (≈ 17.5 µg/mL). Further, the hepatocyte CLint in data set [3] amounted to 130 µL/min/1e6 cells. The LogD7.4 in “LogD7.4” is reported as 3.3.
